Measured values published in patent US10765114B2, “4-amino-6-(pyridyl and 2-substitutedphenyl)-picolinates and 6-amino-2-(pyridyl and 2-substitutedphenyl)-pyrimidine-4-carboxylates and their use as herbicides” (Dow AgroSciences LLC, priority 2013, dated 2020).

Tested on: Key Broadleaf Weed and Crop Species
Assay: Post-Emergent Test II (Table 5)
Format: in vivo
Conditions: Abutilon theophrasti, post-emergence, 336 h, ABUTH: velvetleaf (Abutilon theophrasti), application rate 70 (kg ai/ha; footnote: g ai/ha), read-out: Visual Growth Reduction (%) 14 Days After Application ABUTH
Outline: (§1)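 Plants at first or second true-leaf stage, grown 7-21 days in greenhouse, were sprayed post-emergence at 187 L/ha with compounds in acetone/DMSO/water/crop oil/surfactant mixture at the high rate and ½× to 1/16× dilutions. Injury scored visually after 14 days, 0 (none) to 100% (complete kill), versus untreated plants.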

Row | SMILES | pest or weed control at 70 g/ha [%]
1 | COC(=O)c1nc(-c2ccc(Cl)c(F)c2CO)cc(N)c1Cl [Compound 29, Methyl 4-amino-3-chloro-6-(4-chloro-3-fluoro-2-(hydroxymethyl)phenyl)picolinate] | 0 to 29

Same assay, conditions: Abutilon theophrasti, post-emergence, 336 h, ABUTH: velvetleaf (Abutilon theophrasti), application rate 140 (kg ai/ha; footnote: g ai/ha), read-out: Visual Growth Reduction (%) 14 Days After Application ABUTH

Row | SMILES | pest or weed control at 140 g/ha [%]
2 | COC(=O)c1nc(-c2ccc(Cl)c(F)c2CO)cc(N)c1Cl [Compound 29, Methyl 4-amino-3-chloro-6-(4-chloro-3-fluoro-2-(hydroxymethyl)phenyl)picolinate] | 0 to 29

Same assay, conditions: Amaranthus retroflexus, post-emergence, 336 h, AMARE: redroot pigweed (Amaranthus retroflexus), application rate 70 (kg ai/ha; footnote: g ai/ha), read-out: Visual Growth Reduction (%) 14 Days After Application AMARE

Row | SMILES | pest or weed control at 70 g/ha [%]
3 | COC(=O)c1nc(-c2ccc(Cl)c(F)c2CO)cc(N)c1Cl [Compound 29, Methyl 4-amino-3-chloro-6-(4-chloro-3-fluoro-2-(hydroxymethyl)phenyl)picolinate] | 0 to 29

Same assay, conditions: Amaranthus retroflexus, post-emergence, 336 h, AMARE: redroot pigweed (Amaranthus retroflexus), application rate 140 (kg ai/ha; footnote: g ai/ha), read-out: Visual Growth Reduction (%) 14 Days After Application AMARE

Row | SMILES | pest or weed control at 140 g/ha [%]
4 | COC(=O)c1nc(-c2ccc(Cl)c(F)c2CO)cc(N)c1Cl [Compound 29, Methyl 4-amino-3-chloro-6-(4-chloro-3-fluoro-2-(hydroxymethyl)phenyl)picolinate] | 0 to 29

Same assay, conditions: Brassica napus, post-emergence, 336 h, BRSSS: oilseed rape, canola (Brassica napus), application rate 70 (kg ai/ha; footnote: g ai/ha), read-out: Visual Growth Reduction (%) 14 Days After Application BRSSS

Row | SMILES | pest or weed control at 70 g/ha [%]
5 | COC(=O)c1nc(-c2ccc(Cl)c(F)c2CO)cc(N)c1Cl [Compound 29, Methyl 4-amino-3-chloro-6-(4-chloro-3-fluoro-2-(hydroxymethyl)phenyl)picolinate] | 0 to 29

Same assay, conditions: Brassica napus, post-emergence, 336 h, BRSSS: oilseed rape, canola (Brassica napus), application rate 140 (kg ai/ha; footnote: g ai/ha), read-out: Visual Growth Reduction (%) 14 Days After Application BRSSS

Row | SMILES | pest or weed control at 140 g/ha [%]
6 | COC(=O)c1nc(-c2ccc(Cl)c(F)c2CO)cc(N)c1Cl [Compound 29, Methyl 4-amino-3-chloro-6-(4-chloro-3-fluoro-2-(hydroxymethyl)phenyl)picolinate] | 0 to 29

Same assay, conditions: Chenopodium album, post-emergence, 336 h, CHEAL: lambsquarters (Chenopodium album), application rate 70 (kg ai/ha; footnote: g ai/ha), read-out: Visual Growth Reduction (%) 14 Days After Application CHEAL

Row | SMILES | pest or weed control at 70 g/ha [%]
7 | COC(=O)c1nc(-c2ccc(Cl)c(F)c2CO)cc(N)c1Cl [Compound 29, Methyl 4-amino-3-chloro-6-(4-chloro-3-fluoro-2-(hydroxymethyl)phenyl)picolinate] | 85 to 94

Same assay, conditions: Chenopodium album, post-emergence, 336 h, CHEAL: lambsquarters (Chenopodium album), application rate 140 (kg ai/ha; footnote: g ai/ha), read-out: Visual Growth Reduction (%) 14 Days After Application CHEAL

Row | SMILES | pest or weed control at 140 g/ha [%]
8 | COC(=O)c1nc(-c2ccc(Cl)c(F)c2CO)cc(N)c1Cl [Compound 29, Methyl 4-amino-3-chloro-6-(4-chloro-3-fluoro-2-(hydroxymethyl)phenyl)picolinate] | 85 to 94

Same assay, conditions: Euphorbia heterophylla, post-emergence, 336 h, EPHHL: wild poinsettia (Euphorbia heterophylla), application rate 70 (kg ai/ha; footnote: g ai/ha), read-out: Visual Growth Reduction (%) 14 Days After Application EPHHL

Row | SMILES | pest or weed control at 70 g/ha [%]
9 | COC(=O)c1nc(-c2ccc(Cl)c(F)c2CO)cc(N)c1Cl [Compound 29, Methyl 4-amino-3-chloro-6-(4-chloro-3-fluoro-2-(hydroxymethyl)phenyl)picolinate] | 0 to 29

Same assay, conditions: Euphorbia heterophylla, post-emergence, 336 h, EPHHL: wild poinsettia (Euphorbia heterophylla), application rate 140 (kg ai/ha; footnote: g ai/ha), read-out: Visual Growth Reduction (%) 14 Days After Application EPHHL

Row | SMILES | pest or weed control at 140 g/ha [%]
10 | COC(=O)c1nc(-c2ccc(Cl)c(F)c2CO)cc(N)c1Cl [Compound 29, Methyl 4-amino-3-chloro-6-(4-chloro-3-fluoro-2-(hydroxymethyl)phenyl)picolinate] | 0 to 29

Same assay, conditions: Helianthus annuus, post-emergence, 336 h, HELAN: sunflower (Helianthus annuus), application rate 70 (kg ai/ha; footnote: g ai/ha), read-out: Visual Growth Reduction (%) 14 Days After Application HELAN

Row | SMILES | pest or weed control at 70 g/ha [%]
11 | COC(=O)c1nc(-c2ccc(Cl)c(F)c2CO)cc(N)c1Cl [Compound 29, Methyl 4-amino-3-chloro-6-(4-chloro-3-fluoro-2-(hydroxymethyl)phenyl)picolinate] | 0 to 29

Same assay, conditions: Helianthus annuus, post-emergence, 336 h, HELAN: sunflower (Helianthus annuus), application rate 140 (kg ai/ha; footnote: g ai/ha), read-out: Visual Growth Reduction (%) 14 Days After Application HELAN

Row | SMILES | pest or weed control at 140 g/ha [%]
12 | COC(=O)c1nc(-c2ccc(Cl)c(F)c2CO)cc(N)c1Cl [Compound 29, Methyl 4-amino-3-chloro-6-(4-chloro-3-fluoro-2-(hydroxymethyl)phenyl)picolinate] | 0 to 29

Same assay, conditions: Viola tricolor, post-emergence, 336 h, VIOTR: wild pansy (Viola tricolor), application rate 70 (kg ai/ha; footnote: g ai/ha), read-out: Visual Growth Reduction (%) 14 Days After Application VIOTR

Row | SMILES | pest or weed control at 70 g/ha [%]
13 | COC(=O)c1nc(-c2ccc(Cl)c(F)c2CO)cc(N)c1Cl [Compound 29, Methyl 4-amino-3-chloro-6-(4-chloro-3-fluoro-2-(hydroxymethyl)phenyl)picolinate] | 0 to 29

Same assay, conditions: Viola tricolor, post-emergence, 336 h, VIOTR: wild pansy (Viola tricolor), application rate 140 (kg ai/ha; footnote: g ai/ha), read-out: Visual Growth Reduction (%) 14 Days After Application VIOTR

Row | SMILES | pest or weed control at 140 g/ha [%]
14 | COC(=O)c1nc(-c2ccc(Cl)c(F)c2CO)cc(N)c1Cl [Compound 29, Methyl 4-amino-3-chloro-6-(4-chloro-3-fluoro-2-(hydroxymethyl)phenyl)picolinate] | 0 to 29

Tested on: Key Grass and Sedge Weeds as well as Grass Crops
Assay: Post-Emergent Test II (Table 6)
Format: in vivo
Conditions: post-emergence, 336 h, CYPSS, 70 g ai/ha, 14 days after application, read-out: Visual Growth Reduction (%) 14 Days After Application CYPSS
Outline: as §1

Row | SMILES | pest or weed control at 70 g/ha [%]
15 | COC(=O)c1nc(-c2ccc(Cl)c(F)c2CO)cc(N)c1Cl [Compound 29, Methyl 4-amino-3-chloro-6-(4-chloro-3-fluoro-2-(hydroxymethyl)phenyl)picolinate] | 0 to 29

Same assay, conditions: post-emergence, 336 h, CYPSS, 140 g ai/ha, 14 days after application, read-out: Visual Growth Reduction (%) 14 Days After Application CYPSS

Row | SMILES | pest or weed control at 140 g/ha [%]
16 | COC(=O)c1nc(-c2ccc(Cl)c(F)c2CO)cc(N)c1Cl [Compound 29, Methyl 4-amino-3-chloro-6-(4-chloro-3-fluoro-2-(hydroxymethyl)phenyl)picolinate] | 0 to 29

Same assay, conditions: post-emergence, 336 h, DIGSA: crabgrass (Digitaria sanguinalis), 70 g ai/ha, 14 days after application, read-out: Visual Growth Reduction (%) 14 Days After Application DIGSA

Row | SMILES | pest or weed control at 70 g/ha [%]
17 | COC(=O)c1nc(-c2ccc(Cl)c(F)c2CO)cc(N)c1Cl [Compound 29, Methyl 4-amino-3-chloro-6-(4-chloro-3-fluoro-2-(hydroxymethyl)phenyl)picolinate] | 0 to 29

Same assay, conditions: post-emergence, 336 h, DIGSA: crabgrass (Digitaria sanguinalis), 140 g ai/ha, 14 days after application, read-out: Visual Growth Reduction (%) 14 Days After Application DIGSA

Row | SMILES | pest or weed control at 140 g/ha [%]
18 | COC(=O)c1nc(-c2ccc(Cl)c(F)c2CO)cc(N)c1Cl [Compound 29, Methyl 4-amino-3-chloro-6-(4-chloro-3-fluoro-2-(hydroxymethyl)phenyl)picolinate] | 0 to 29

Same assay, conditions: post-emergence, 336 h, ECHSS, 70 g ai/ha, 14 days after application, read-out: Visual Growth Reduction (%) 14 Days After Application ECHSS

Row | SMILES | pest or weed control at 70 g/ha [%]
19 | COC(=O)c1nc(-c2ccc(Cl)c(F)c2CO)cc(N)c1Cl [Compound 29, Methyl 4-amino-3-chloro-6-(4-chloro-3-fluoro-2-(hydroxymethyl)phenyl)picolinate] | 0 to 29

Same assay, conditions: post-emergence, 336 h, ECHSS, 140 g ai/ha, 14 days after application, read-out: Visual Growth Reduction (%) 14 Days After Application ECHSS

Row | SMILES | pest or weed control at 140 g/ha [%]
20 | COC(=O)c1nc(-c2ccc(Cl)c(F)c2CO)cc(N)c1Cl [Compound 29, Methyl 4-amino-3-chloro-6-(4-chloro-3-fluoro-2-(hydroxymethyl)phenyl)picolinate] | 0 to 29

Same assay, conditions: post-emergence, 336 h, ORYSS (crop), 70 g ai/ha, 14 days after application, read-out: Visual Growth Reduction (%) 14 Days After Application ORYSS

Row | SMILES | pest or weed control at 70 g/ha [%]
21 | COC(=O)c1nc(-c2ccc(Cl)c(F)c2CO)cc(N)c1Cl [Compound 29, Methyl 4-amino-3-chloro-6-(4-chloro-3-fluoro-2-(hydroxymethyl)phenyl)picolinate] | 0 to 29

Same assay, conditions: post-emergence, 336 h, ORYSS (crop), 140 g ai/ha, 14 days after application, read-out: Visual Growth Reduction (%) 14 Days After Application ORYSS

Row | SMILES | pest or weed control at 140 g/ha [%]
22 | COC(=O)c1nc(-c2ccc(Cl)c(F)c2CO)cc(N)c1Cl [Compound 29, Methyl 4-amino-3-chloro-6-(4-chloro-3-fluoro-2-(hydroxymethyl)phenyl)picolinate] | 0 to 29

Same assay, conditions: post-emergence, 336 h, SETFA: giant foxtail (Setaria faberi), 70 g ai/ha, 14 days after application, read-out: Visual Growth Reduction (%) 14 Days After Application SETFA

Row | SMILES | pest or weed control at 70 g/ha [%]
23 | COC(=O)c1nc(-c2ccc(Cl)c(F)c2CO)cc(N)c1Cl [Compound 29, Methyl 4-amino-3-chloro-6-(4-chloro-3-fluoro-2-(hydroxymethyl)phenyl)picolinate] | 0 to 29

Same assay, conditions: post-emergence, 336 h, SETFA: giant foxtail (Setaria faberi), 140 g ai/ha, 14 days after application, read-out: Visual Growth Reduction (%) 14 Days After Application SETFA

Row | SMILES | pest or weed control at 140 g/ha [%]
24 | COC(=O)c1nc(-c2ccc(Cl)c(F)c2CO)cc(N)c1Cl [Compound 29, Methyl 4-amino-3-chloro-6-(4-chloro-3-fluoro-2-(hydroxymethyl)phenyl)picolinate] | 0 to 29

Same assay, conditions: post-emergence, 336 h, SORVU: grain sorghum (Sorghum vulgare), 70 g ai/ha, 14 days after application, read-out: Visual Growth Reduction (%) 14 Days After Application SORVU

Row | SMILES | pest or weed control at 70 g/ha [%]
25 | COC(=O)c1nc(-c2ccc(Cl)c(F)c2CO)cc(N)c1Cl [Compound 29, Methyl 4-amino-3-chloro-6-(4-chloro-3-fluoro-2-(hydroxymethyl)phenyl)picolinate] | 0 to 29

Same assay, conditions: post-emergence, 336 h, SORVU: grain sorghum (Sorghum vulgare), 140 g ai/ha, 14 days after application, read-out: Visual Growth Reduction (%) 14 Days After Application SORVU

Row | SMILES | pest or weed control at 140 g/ha [%]
26 | COC(=O)c1nc(-c2ccc(Cl)c(F)c2CO)cc(N)c1Cl [Compound 29, Methyl 4-amino-3-chloro-6-(4-chloro-3-fluoro-2-(hydroxymethyl)phenyl)picolinate] | 0 to 29

Same assay, conditions: post-emergence, 336 h, TRZSS (crop), 70 g ai/ha, 14 days after application, read-out: Visual Growth Reduction (%) 14 Days After Application TRZSS

Row | SMILES | pest or weed control at 70 g/ha [%]
27 | COC(=O)c1nc(-c2ccc(Cl)c(F)c2CO)cc(N)c1Cl [Compound 29, Methyl 4-amino-3-chloro-6-(4-chloro-3-fluoro-2-(hydroxymethyl)phenyl)picolinate] | 0 to 29

Same assay, conditions: post-emergence, 336 h, TRZSS (crop), 140 g ai/ha, 14 days after application, read-out: Visual Growth Reduction (%) 14 Days After Application TRZSS

Row | SMILES | pest or weed control at 140 g/ha [%]
28 | COC(=O)c1nc(-c2ccc(Cl)c(F)c2CO)cc(N)c1Cl [Compound 29, Methyl 4-amino-3-chloro-6-(4-chloro-3-fluoro-2-(hydroxymethyl)phenyl)picolinate] | 0 to 29

Same assay, conditions: post-emergence, 336 h, ZEAMX: maize, corn (Zea mays), 70 g ai/ha, 14 days after application, read-out: Visual Growth Reduction (%) 14 Days After Application ZEAMX

Row | SMILES | pest or weed control at 70 g/ha [%]
29 | COC(=O)c1nc(-c2ccc(Cl)c(F)c2CO)cc(N)c1Cl [Compound 29, Methyl 4-amino-3-chloro-6-(4-chloro-3-fluoro-2-(hydroxymethyl)phenyl)picolinate] | 0 to 29

Same assay, conditions: post-emergence, 336 h, ZEAMX: maize, corn (Zea mays), 140 g ai/ha, 14 days after application, read-out: Visual Growth Reduction (%) 14 Days After Application ZEAMX

Row | SMILES | pest or weed control at 140 g/ha [%]
30 | COC(=O)c1nc(-c2ccc(Cl)c(F)c2CO)cc(N)c1Cl [Compound 29, Methyl 4-amino-3-chloro-6-(4-chloro-3-fluoro-2-(hydroxymethyl)phenyl)picolinate] | 0 to 29
